Measured values from ChEMBL document CHEMBL1817541, “Synthesis and Evaluation of the α-D-/α-L-Rhamnosyl and Amicetosyl Digitoxigenin Oligomers as Anti-tumor Agents” (ACS Med Chem Lett, 2011).

Key:
Type in all cases: functional
[1] = test system: NCI-H460; assay: Cytotoxicity against human NCI-H460 cell assessed as cell death at 10 nM after 12 hrs by Hoechst 33342/propidium iodide staining based fluorescence microscopy
[2] = test system: NCI-H460; assay: Cytotoxicity against human NCI-H460 cell assessed as cell death at 100 nM after 12 hrs by Hoechst 33342/propidium iodide staining based fluorescence microscopy
[3] = test system: NCI-H460; assay: Cytotoxicity against human NCI-H460 cell assessed as cell death at 1 uM after 12 hrs by Hoechst 33342/propidium iodide staining based fluorescence microscopy
[4] = test system: NCI-H460; assay: Cytotoxicity against human NCI-H460 cells in serum free medium assessed as cell death at 10 uM after 12 hrs by Hoechst 33342/propidium iodide staining based fluorescence microscopy
[5] = test system: NCI-H460; assay: Cytotoxicity against human NCI-H460 cell assessed as cell death at 500 nM after 12 hrs by Hoechst 33342/propidium iodide staining based fluorescence microscopy
[6] = test system: NCI-H460; assay: Cytotoxicity against human NCI-H460 cell assessed as cell death at 100 uM after 12 hrs by Hoechst 33342/propidium iodide staining based fluorescence microscopy
[7] = test system: NCI-H460; assay: Cytotoxicity against human NCI-H460 cell assessed as cell death at 50 nM after 12 hrs by Hoechst 33342/propidium iodide staining based fluorescence microscopy
[8] = test system: NCI-H460; assay: Induction of apoptosis in human NCI-H460 cells in at 50 nM after 12 hrs by Hoechst 33342/propidium iodide staining based fluorescence microscopy
[9] = test system: NCI-H460; assay: Cytotoxicity against human NCI-H460 cell assessed as cell death after 12 hrs by Hoechst 33342/propidium iodide staining based fluorescence microscopy; settings: NCI-H460, 12 h

Structure (SMILES) | Activity [1] | Activity [2] | Activity [3] | Activity [4] | Activity [5] | Activity [6] | Activity [7] | Activity [8] | IC50 [9]
C[C@@H]1O[C@@H](O[C@H]2CC[C@@]3(C)[C@H](CC[C@@H]4[C@@H]3CC[C@]3(C)[C@@H](C5=CC(=O)OC5)CC[C@]43O)C2)[C@H](O)[C@H](O)[C@H]1O | 17.04% | 96.96% | 100% | 100% | 100% | 100% | 60.56% | 48.64% | –
C[C@H]1O[C@H](O[C@H]2CC[C@@]3(C)[C@H](CC[C@@H]4[C@@H]3CC[C@]3(C)[C@@H](C5=CC(=O)OC5)CC[C@]43O)C2)CC[C@@H]1O[C@@H]1CC[C@H](O[C@@H]2CC[C@H](O)[C@@H](C)O2)[C@@H](C)O1 | 6.55% | 8.57% | 9.84% | 26.48% | 9.11% | 53.1% | 7.85% | – | 33.1 µM
C[C@@H]1O[C@@H](O[C@@H]2[C@@H](O)[C@@H](O)[C@H](O[C@H]3CC[C@@]4(C)[C@H](CC[C@@H]5[C@@H]4CC[C@]4(C)[C@@H](C6=CC(=O)OC6)CC[C@]54O)C3)O[C@H]2C)[C@H](O)[C@H](O)[C@H]1O | 12.68% | 20.51% | 92.06% | 100% | 62.95% | 100% | 16.8% | – | 0.365 µM
C[C@@H]1O[C@@H](O[C@@H]2[C@@H](O)[C@@H](O)[C@H](O[C@@H]3[C@@H](O)[C@@H](O)[C@H](O[C@H]4CC[C@@]5(C)[C@H](CC[C@@H]6[C@@H]5CC[C@]5(C)[C@@H](C7=CC(=O)OC7)CC[C@]65O)C4)O[C@H]3C)O[C@H]2C)[C@H](O)[C@H](O)[C@H]1O | 10.71% | 15.21% | 43.65% | 94.07% | 38.97% | 100% | 12.17% | – | 1.35 µM
C[C@@H]1O[C@@H](O[C@@H]2CC[C@H](O[C@H]3CC[C@@]4(C)[C@H](CC[C@@H]5[C@@H]4CC[C@]4(C)[C@@H](C6=CC(=O)OC6)CC[C@]54O)C3)O[C@H]2C)CC[C@H]1O | 8.73% | 18.03% | 94.59% | 100% | 53.76% | 100% | 14.89% | – | 0.51 µM
C[C@@H]1O[C@@H](O[C@@H]2CC[C@H](O[C@@H]3CC[C@H](O[C@H]4CC[C@@]5(C)[C@H](CC[C@@H]6[C@@H]5CC[C@]5(C)[C@@H](C7=CC(=O)OC7)CC[C@]65O)C4)O[C@H]3C)O[C@H]2C)CC[C@H]1O | 8.34% | 11.8% | 25.85% | 70.17% | 16.46% | 91.74% | 10.85% | – | 3.96 µM
C[C@H]1O[C@H](O[C@H]2CC[C@@]3(C)[C@H](CC[C@@H]4[C@@H]3CC[C@]3(C)[C@@H](C5=CC(=O)OC5)CC[C@]43O)C2)[C@@H](O)[C@@H](O)[C@@H]1O | 7.85% | 12.28% | 71.67% | 95.72% | 35.05% | 100% | 12.14% | 45.71% | 0.706 µM
C[C@H]1O[C@H](O[C@H]2[C@H](O)[C@H](O)[C@@H](O[C@H]3CC[C@@]4(C)[C@H](CC[C@@H]5[C@@H]4CC[C@]4(C)[C@@H](C6=CC(=O)OC6)CC[C@]54O)C3)O[C@@H]2C)[C@@H](O)[C@@H](O)[C@@H]1O | 6.36% | 9.87% | 14.52% | 58.09% | 11.06% | 73.4% | 7.37% | – | 4.27 µM
C[C@H]1O[C@H](O[C@H]2[C@H](O)[C@H](O)[C@@H](O[C@H]3[C@H](O)[C@H](O)[C@@H](O[C@H]4CC[C@@]5(C)[C@H](CC[C@@H]6[C@@H]5CC[C@]5(C)[C@@H](C7=CC(=O)OC7)CC[C@]65O)C4)O[C@@H]3C)O[C@@H]2C)[C@@H](O)[C@@H](O)[C@@H]1O | 6.44% | 7.17% | 8.37% | 28.42% | 7.99% | 59.91% | 6.85% | – | 18 µM
C[C@H]1O[C@H](O[C@H]2CC[C@@]3(C)[C@H](CC[C@@H]4[C@@H]3CC[C@]3(C)[C@@H](C5=CC(=O)OC5)CC[C@]43O)C2)CC[C@@H]1O[C@@H]1CC[C@H](O)[C@@H](C)O1 | 9.06% | 11.49% | 15.99% | 50.25% | 12.91% | 71.1% | 10.01% | – | 5.99 µM
